What is called EC50 is the concentration at which the effect is half-maximal.

The target in the test is T1, GPR119 (UniProt Q8TDV5, S309L, species not given).
T1 sequence (Q8TDV5 1-335 S309L): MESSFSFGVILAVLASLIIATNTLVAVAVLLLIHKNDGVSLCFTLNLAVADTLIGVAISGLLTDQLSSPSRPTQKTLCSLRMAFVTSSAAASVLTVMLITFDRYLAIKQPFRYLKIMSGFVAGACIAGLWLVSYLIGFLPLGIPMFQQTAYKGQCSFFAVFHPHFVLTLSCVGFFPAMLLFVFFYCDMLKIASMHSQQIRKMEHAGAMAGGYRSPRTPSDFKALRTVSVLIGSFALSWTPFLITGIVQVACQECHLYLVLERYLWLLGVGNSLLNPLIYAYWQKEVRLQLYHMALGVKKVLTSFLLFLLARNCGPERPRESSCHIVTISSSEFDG
The test can be described thus: GPR119 signaling, cyclic AMP (cAMP) HTRF assay. The class given is cell-based, human (S309L variant) or murine. The conditions noted are these: CHO cells with Gα15 and murine GPR119 or HEK293 Flp-In cells with human GPR119 S309L, read-out: EC50 (agonist activation of GPR119, cAMP). The source says: The title compound was synthesized using 2-{2-[1-(5-chloropyrimidin-2-yl)piperidin-4-yl]cyclopropyl}ethyl 4-methylbenzenesulfonate from step 1 of this example by a general procedure analogous that described in Example 59. LRMS calc: 424.9; obs: 425.01 (M+1). Measurement of GPR119Signaling Using a Cyclic AMP (cAMP) Homogenous Time Resolved Fluorescence (HTRF) Assay
Chinese hamster ovary (CHO) cell lines stably transfected with the permissive guanine nucleotide binding protein alpha 15 (Gα15) and murine GPR119 were maintained in DMEM media containing FBS, penicillin-streptomycin, puromycin, and G418 (geneticin). Alternatively, human embryonic kidney (HEK)293 Flp-In cells (Invitrogen, Carlsbad, Calif.) were stably transfected with a human SNP variant (S309L) of GPR119 and maintained in DMEM media containing FBS, penicillin-streptomycin, and hygromycin. Agonist activation of the GPR119 receptor was measured in receptor transfected cells described above, treated with compounds of this invention, using a commercial homogenous time resolved fluorescence (HTRF) kit for measurement of cAMP (CisBio, Bedford, Mass.). The assay was performed in 96-well half-volume plates (murine) or 384-well plates (human) following the manufacturers instructions. Briefly, suspended cells were incubated with a dose titration of test compound at room temperature for 60 min, lysed, and incubated with HTRF reagents for an additional 60 min. The plate was read using an Envision multilabel reader (Perkin Elmer) adjusted to read time resolved fluorescence and the cAMP concentrations were extrapolated from a cAMP calibration curve. […] The concentration of test compound required to stimulate a half-maximal response (EC50), and efficacy as compared to an internal agonist control, was determined from a sigmoidal 4-parameter curve fit of the resulting plot of normalized activity versus compound concentration.
On the technique in general: TR-FRET usually uses a lanthanide donor and a delayed reading to cut background.

Consider `Clc1cnc(N2CCC([C@H]3C[C@H]3CCNc3ccc4[nH]ncc4c3)CC2)nc1` [Ex 42, N-(2-{(1S,2S)-2-[1-(5-chloropyrimidin-2-yl)piperidin-4-yl]cyclopropyl}ethyl)-1H-indazol-5-amine], for which the EC50 is less than 10 nM.

As to `Clc1cnc(N2CCC(C3CC3CCNc3ccc(-n4cncn4)nc3)CC2)nc1` (single isomer, unassigned) [Ex 59, trans-N-(2-{2-[1-(5-chloropyrimidin-2-yl)piperidin-4-yl]cyclopropyl}ethyl)-6-1H-1,2,4-triazol-1-yl)pyridin-3-amine], the EC50 fell in the range of 10 to 50 nM.

For the compound `Clc1cnc(N2CCC([C@H]3C[C@H]3CCNc3ccc(-n4cnnn4)cn3)CC2)nc1` [Ex 24, N-(2-{(1S,2S)-2-[1-(5-chloropyrimidin-2-yl)piperidin-4-yl]cyclopropyl}ethyl)-5-(1H-tetrazol-1-yl)pyridin-2-amine], the EC50 was less than 10 nM.

As for `Clc1cnc(N2CCC([C@H]3C[C@H]3CCNc3cnc(-n4cnnn4)nc3)CC2)nc1` [Ex 26, N-(2-{(1S,2S)-2-[1-(5-chloropyrimidin-2-yl)piperidin-4-yl]cyclopropyl}ethyl)-2-(1H-tetrazol-1-yl)pyrimidin-5-amine], the EC50 was 10 to 50 nM.

For the compound `O=C1Cc2cc(NCC[C@@H]3C[C@@H]3C3CCN(c4ncc(Cl)cn4)CC3)cc(F)c2N1` [Ex 53, 5-[(2-{(1S,2S)-2-[1-(5-chloropyrimidin-2-yl)piperidin-4-yl]cyclopropyl}ethyl)amino]-7-fluoro-1,3-dihydro-2H-indol-2-one], the EC50 was less than 10 nM.

For the compound `Cc1cc(C#N)nc(NCC[C@@H]2C[C@@H]2C2CCN(c3ncc(Cl)cn3)CC2)c1` [Ex 41, 6-[(2-{(1S,2S)-2-[1-(5-chloropyrimidin-2-yl)piperidin-4-yl]cyclopropyl}ethyl)amino]-4-methylpyridine-2-carbonitrile], the EC50 is 10 to 50 nM.

Consider `CS(=O)(=O)c1ccc(NCC[C@@H]2C[C@@H]2C2CCN(c3ncc(Cl)cn3)CC2)nc1` [Ex 6, N-(2-{(1S,2S)-2-[1-(5-chloropyrimidin-2-yl)piperidin-4-yl]cyclopropyl}ethyl)-5-(methylsulfonyl)pyridin-2-amine], for which the EC50 is 10 to 50 nM.

For `Clc1cnc(N2CCC([C@H]3C[C@H]3CCNc3cnc(-n4cncn4)cn3)CC2)nc1` [Ex 23, N-(2-{(1S,2S)-2-[1-(5-chloropyrimidin-2-yl)piperidin-4-yl]cyclopropyl}ethyl)-5-(1H-1,2,4-triazol-1-yl)pyrazin-2-amine], the EC50 was less than 10 nM.

As for `CS(=O)(=O)c1ccc(NCC[C@@H]2C[C@H]2C2CCN(c3ncc(Cl)cn3)CC2)cc1` (single isomer, unassigned) [Ex 58, trans-N-(2-{2-[1-(5-chloropyrimidin-2-yl)piperidin-4-yl]cyclopropyl}ethyl)-4-(methylsulfonyl)aniline], the EC50 is 50 to 200 nM.

Consider `Cn1ncc2cc(NCC[C@@H]3C[C@@H]3C3CCN(c4ncc(Cl)cn4)CC3)ccc21` [Ex 48, N-(2-{(1S,2S)-2-[1-(5-chloropyrimidin-2-yl)piperidin-4-yl]cyclopropyl}ethyl)-1-methyl-1H-indazol-5-amine], for which the EC50 is 10 to 50 nM.

Regarding `CC1(C(=O)Nc2ccc(NCC[C@@H]3C[C@@H]3C3CCN(c4ncc(Cl)cn4)CC3)cn2)CC1` [Ex 38, N-{5-[(2-{(1S,2S)-2-[1-(5-chloropyrimidin-2-yl)piperidin-4-yl]cyclopropyl}ethyl)amino]pyridin-2-yl}-1-methylcyclopropane carboxamide], the EC50 is less than 10 nM.

Consider `Clc1cnc(N2CCC([C@H]3C[C@H]3CCNc3cnc(-n4cncn4)nc3)CC2)nc1` [Ex 16, N-(2-{(1S,2S)-2-[1-(5-chloropyrimidin-2-yl)piperidin-4-yl]cyclopropyl}ethyl)-2-(1H-1,2,4-triazol-1-yl)pyrimidin-5-amine], for which the EC50 lay within 10 to 50 nM.

As for `Cc1n[nH]c2ccc(NCC[C@@H]3C[C@@H]3C3CCN(c4ncc(Cl)cn4)CC3)cc12` [Ex 47, N-(2-{(1S,2S)-2-[1-(5-chloropyrimidin-2-yl)piperidin-4-yl]cyclopropyl}ethyl)-3-methyl-1H-indazol-5-amine], the EC50 was less than 10 nM.

`Clc1cnc(N2CCC([C@H]3C[C@H]3CCNc3ccc(-c4ccn[nH]4)cc3)CC2)nc1` [Ex 12, N-(2-{(1S,2S)-2-[1-(5-chloropyrimidin-2-yl)piperidin-4-yl]cyclopropyl}ethyl)-4-(1H-pyrazol-5-yl)aniline]: the 50% effective concentration (EC50) is less than 10 nM.

For `Clc1cnc(N2CCC([C@H]3C[C@H]3CCNc3ccc(-n4cnnc4)cc3)CC2)nc1` [Ex 25, N-(2-{(1S,2S)-2-[1-(5-chloropyrimidin-2-yl)piperidin-4-yl]cyclopropyl}ethyl)-4-(4H-1,2,4-triazol-4-yl)aniline], the EC50 is less than 10 nM.

Take `O=C1CCCN1c1ccc(NCC[C@@H]2C[C@@H]2C2CCN(c3ncc(Cl)cn3)CC2)cn1` [Ex 20, 1-{5-[(2-{(1S,2S)-2-[1-(5-chloropyrimidin-2-yl)piperidin-4-yl]cyclopropyl}ethyl)amino]pyridin-2-yl}pyrrolidin-2-one]: the EC50 lay in the range of 10 to 50 nM.

Take `Cc1cc(C#N)cc(NCC[C@@H]2C[C@@H]2C2CCN(c3ncc(Cl)cn3)CC2)n1` [Ex 40, 2-[(2-{(1S,2S)-2-[1-(5-chloropyrimidin-2-yl)piperidin-4-yl]cyclopropyl}ethyl)amino]-6-methylisonicotinonitrile]: the EC50 fell in the range of 10 to 50 nM.

As for `Cc1cc(NCC[C@@H]2C[C@@H]2C2CCN(c3ncc(Cl)cn3)CC2)ncc1NC(=O)C(C)(C)C` [Ex 29, N-{6-[(2-{(1S,2S)-2-[1-(5-chloropyrimidin-2-yl)piperidin-4-yl]cyclopropyl}ethyl)amino]-4-methylpyridin-3-yl}-2,2-dimethyl propanamide], the EC50 is less than 10 nM.

Regarding `Clc1cnc(N2CCC([C@H]3C[C@H]3CCNc3ccc(-n4ccnn4)cn3)CC2)nc1` [Ex 8, N-(2-{(1S,2S)-2-[1-(5-chloropyrimidin-2-yl)piperidin-4-yl]cyclopropyl}ethyl)-5-(1H-1,2,3-triazol-1-yl)pyridin-2-amine], the EC50 was less than 10 nM.

For `Cn1cc2cc(NCC[C@@H]3C[C@@H]3C3CCN(c4ncc(Cl)cn4)CC3)ccc2n1` [Ex 49, N-(2-{(1S,2S)-2-[1-(5-chloropyrimidin-2-yl)piperidin-4-yl]cyclopropyl}ethyl)-2-methyl-2H-indazol-5-amine], the EC50 lay within 10 to 50 nM.

For `Cc1nnn(-c2ccc(NCC[C@@H]3C[C@@H]3C3CCN(c4ncc(Cl)cn4)CC3)cn2)n1` [Ex 17, N-(2-{(1S,2S)-2-[1-(5-chloropyrimidin-2-yl)piperidin-4-yl]cyclopropyl}ethyl)-6-(5-methyl-2H-tetrazol-2-yl)pyridin-3-amine], the EC50 is less than 10 nM.

In the case of `CC(=O)Nc1ccc(NCC[C@@H]2C[C@@H]2C2CCN(c3ncc(Cl)cn3)CC2)cc1` [Ex 52, N-{4-[(2-{(1S,2S)-2-[1-(5-chloropyrimidin-2-yl)piperidin-4-yl]cyclopropyl}ethyl)amino]phenyl}acetamide], the EC50 lay within 10 to 50 nM.

As for `O=C1COC(=O)N1c1ccc(NCC[C@@H]2C[C@@H]2C2CCN(c3ncc(Cl)cn3)CC2)cn1` [Ex 27], the concentration giving a half-maximal response (EC50) lay within 10 to 50 nM.

On to `O=C1Cc2cc(NCC[C@@H]3C[C@@H]3C3CCN(c4ncc(Cl)cn4)CC3)cc(Cl)c2N1` [Ex 54, 7-chloro-5-[(2-{(1S,2S)-2-[1-(5-chloropyrimidin-2-yl)piperidin-4-yl]cyclopropyl}ethyl)amino]-1,3-dihydro-2H-indol-2-one], for which the EC50 was less than 10 nM.

As for `O=C1NCc2cc(NCC[C@@H]3C[C@@H]3C3CCN(c4ncc(Cl)cn4)CC3)ccc21` [Ex 44, 5-[(2-{(1S,2S)-2-[1-(5-chloropyrimidin-2-yl)piperidin-4-yl]cyclopropyl}ethyl)amino]isoindolin-1-one], the concentration giving a half-maximal response (EC50) is less than 10 nM.

With `Cc1cc(NCC[C@@H]2C[C@@H]2C2CCN(c3ncc(Cl)cn3)CC2)cc(C#N)n1` [Ex 22, 4-[(2-{(1S,2S)-2-[1-(5-chloropyrimidin-2-yl)piperidin-4-yl]cyclopropyl}ethyl)amino]-6-methylpyridine-2-carbonitrile], the EC50 is less than 10 nM.

With `Cc1nnnn1-c1ccc(NCC[C@@H]2C[C@@H]2C2CCN(c3ncc(Cl)cn3)CC2)cn1` [Ex 18, N-(2-{(1S,2S)-2-[1-(5-chloropyrimidin-2-yl)piperidin-4-yl]cyclopropyl}ethyl)-6-(5-methyl-1H-tetrazol-1-yl)pyridin-3-amine], the 50% effective concentration (EC50) was in the range of 10 to 50 nM.

For the origin of these results see patent US8552022B2, “Substituted cyclopropyl compounds, compositions containing such compounds and methods of treatment” (Merck Sharp & Dohme Corp., priority 2009, dated 2013).
